Assay results from patent publication US8394971B2, “Indole derivatives as selective androgen receptor modulators (SARMS)” (Janssen Pharmaceutica N.V., priority 2004, dated 2013).
Where “and” joins values, the source holds several entries; their conditions need not be identical. Identical values can stand only once.

What was measured:
[1] = target: T1, androgen receptor (adenovirus AdEasy+rAR in L929 cells) (Rattus norvegicus, UniProt P15207); assay: L929 Androgen Receptor Functional Assay, Adenovirus Transduction; type: cell-based; settings: for % Activity: L929 agonist testing
T1 construct: expressed in transfected cells
T1 sequence (P15207 1-902): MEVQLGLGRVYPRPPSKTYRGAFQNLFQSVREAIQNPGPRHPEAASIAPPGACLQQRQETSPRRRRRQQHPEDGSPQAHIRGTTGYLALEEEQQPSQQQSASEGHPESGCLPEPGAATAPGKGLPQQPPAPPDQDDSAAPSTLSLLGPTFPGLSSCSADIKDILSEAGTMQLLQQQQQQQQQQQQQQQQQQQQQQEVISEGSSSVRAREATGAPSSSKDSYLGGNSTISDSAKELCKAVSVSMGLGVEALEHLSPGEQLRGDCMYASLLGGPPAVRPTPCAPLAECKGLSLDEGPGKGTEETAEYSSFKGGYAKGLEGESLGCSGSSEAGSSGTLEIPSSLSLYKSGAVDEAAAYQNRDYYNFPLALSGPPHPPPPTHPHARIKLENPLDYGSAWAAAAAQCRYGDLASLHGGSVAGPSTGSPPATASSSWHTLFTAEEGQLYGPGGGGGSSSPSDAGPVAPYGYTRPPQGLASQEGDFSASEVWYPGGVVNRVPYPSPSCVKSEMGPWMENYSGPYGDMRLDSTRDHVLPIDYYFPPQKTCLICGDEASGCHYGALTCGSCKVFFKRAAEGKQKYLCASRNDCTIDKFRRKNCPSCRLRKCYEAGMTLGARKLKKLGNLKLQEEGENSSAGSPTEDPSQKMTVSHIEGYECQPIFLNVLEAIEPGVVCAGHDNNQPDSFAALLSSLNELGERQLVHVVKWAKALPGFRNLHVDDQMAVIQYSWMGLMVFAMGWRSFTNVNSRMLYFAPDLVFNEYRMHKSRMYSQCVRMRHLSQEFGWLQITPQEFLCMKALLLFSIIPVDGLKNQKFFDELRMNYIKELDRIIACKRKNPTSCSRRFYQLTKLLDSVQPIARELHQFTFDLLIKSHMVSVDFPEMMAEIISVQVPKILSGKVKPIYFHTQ
Experimental: L929 cells were plated in 96-well plates at 20,000 cells per well, in DMEM/F12 (GIBCO) containing 10% (v/v) charcoal-treated fetal bovine serum (Hyclone) and lacking phenol red. The plates were then incubated overnight at 37° C. in 5% (v/v) humidified CO2.
Test compound dilutions were prepared in 100% (v/v) DMSO, if necessary. Each dilution was made to 1250× the final desired assay concentration.
First, 2 mL of DMEM/F12 lacking phenol red was pipetted into the wells of a 2-mL 96-well assay block. Next, 4 μL of the 1250× test compound dilutions were pipetted into each well of the assay block. The mixtures within the well were then carefully mixed by pipette.
In a 15 mL or 50 mL sterile centrifuge tube, a 2.5 nM (2.5×) dilution of R1881 (methyl-trienolone) in DMEM/F12 lacking phenol red was prepared.
In a second 15 mL or 50 mL centrifuge tube a solution containing an equal volume of DMEM to the first and an equal volume of 100% (v/v) DMSO to the volume of R1881 used in the first tube was prepared.
In a 15 mL or 50 mL sterile centrifuge tube, a dilution in DMEM/F12 of the adenovirus AdEasy+rAR at an moi of 1:500 per well was prepared.
The medium was removed from the 96-well plates by inversion and dried, inverted, very briefly. As soon as possible after medium removal, 40 μL of the diluted unlabeled test compound was added to each well, in duplicate. To each well designated for antagonist testing was added 40 μL of the 2.5 nM R1881 dilution to the wells for antagonist testing. To each well designated for agonist testing was added 40 μL of the DMSO dilution. Then 20 μL of the diluted adenovirus were added to all wells. The plates were incubated for 48 hours at 37° C. in 5% (v/v) humidified CO2.
To each well was added 100 μL of Steady-Glo luciferase assay substrate (Promega) and the plates were placed on a rotary shaker for 1 min. The plates were then incubated at room temperature in the dark for one hour. The contents of each well were then transferred to a white microtiter plate (Packard) and read on a Luminoskan Ascent (Thermo Lab Systems).
L929 AR percent activity was determined by testing dilutions of the test compound using a concentration of 3000 nM unless otherwise noted. L929 percent inhibition was determined by testing dilutions of the test compound using a concentration of 3000 nM. […] Luciferase activity per well were measured and EC50s and IC50s determined by linear regression.

[2] = target: T2, androgen receptor (adenovirus AdEasy+rAR in COS-7 cells) (Rattus norvegicus, UniProt P15207); assay: COS-7 Whole-Cell Androgen Receptor Binding Assay, Adenovirus Transduction; settings: for % Inhibition / inhibition at 3 µM: COS binding, 3000 nM unless otherwise noted
T2 construct: expressed in transfected cells
T2 sequence (P15207 1-902): T1 sequence (P15207 1-902)
Experimental: COS-7 cells were plated in 96-well plates at 20,000 cells per well, in a solution of DMEM/F12 (GIBCO) containing 10% (v/v) charcoal-treated fetal bovine serum (Hyclone) and lacking phenol red. The cells were then incubated overnight at 37° C. in 5% (v/v) humidified CO2.
Test compound solutions were prepared by diluting the test compound in 100% (v/v) DMSO, if necessary.
Next, 1 mL of DMEM/F12 lacking phenol red was pipetted into each of the wells of a 2-mL 96-well assay block. […] The wells were carefully mixed by pipette.
In a 15 mL or 50 mL sterile centrifuge tube, a dilution in DMEM/F12 of the adenovirus AdEasy+rAR at a moi of 1:50 per well was prepared.
The medium was removed from the 96-well plates by inversion and the plates dried very briefly, inverted, on a sterile towel. As soon as possible after medium removal, 40 μL of the diluted test compound was added to each well, in duplicate. […] The plates were then incubated for 48 hours at 37° C. in 5% (v/v) humidified CO2.
The medium was removed from the above incubated plates by inversion and dried. Each well was then washed with 0.35 mL of 1×PBS. The PBS was then removed from the plates by inversion and the plates dried.
To each well was then added 50 μL of 0.5% (v/v) Triton X-100 (Sigma) in 1×PBS and the plates placed on a rotary shaker for 5 min. The contents of each well were then transferred to an OptiPlate-96 (Packard) scintillation plate. To each well was then added 0.2 mL of Microscint-20 (Packard) and the wells counted on a TopCount (Packard).
[…] Counts per well were measured and percents of inhibition determined. […] Counts per well were measured and IC50s determined by linear regression.

[3] = system: testosterone-enhanced ventral prostate and seminal vesicle weights in castrated male Sprague Dawley rats; assay: Ventral Prostate and Seminal Vesicle Weight In Vivo Assay; design: species or system rat; settings: immature castrated rats; once daily for five days, usually orally at 40 mg/kg, with testosterone propionate 2 mg/kg s.c.
Experimental: Immature (approximately 50 g) castrated male Sprague Dawley rats (Charles River) were treated once daily for five days with test compound (usually given orally at 40 mg/kg in a volume of 0.3 mL, in 30% cyclodextrin or 0.5% methylcellulose vehicle) and with testosterone propionate (given subcutaneously by injection at the nape of the neck at 2 mg/kg, in a volume of 0.1 mL in sesame oil). On the sixth day, the rats were euthanized by asphyxiation in carbon dioxide. Ventral prostates and seminal vesicles were removed and their wet weights determined.
A test compound was said to be “active” if the non weight adjusted prostate weight was ≦40 mg or the % Inhibition prostate weight, body weight adjusted was ≧40% @2 mg/day dosage.

| Compound | % Activity ([1]; 3000 nM) [%] | active / inactive (inhibition of testosterone-enhanced prostate weight) [3] | further results |
| --- | --- | --- | --- |
| CCSCC(C)(O)c1cc2cc([N+](=O)[O-])c(C(F)(F)F)cc2[nH]1 (single isomer, unassigned) [compound 149] |  |  | % Activity ([1]; 3000 nM, 3 µM): 2%; % Inhibition [2]: 63% and 78% |
| CCSCC(C)(O)c1[nH]c2cc(C(F)(F)F)c(Br)cc2c1C (centres unmarked) [compound 220] | −3 | inactive | inhibition at 3 µM ([1]; L929, L929 antagonist testing with R1881, 3000 nM): 103% |
| O=[N+]([O-])c1cc2cc(C3(O)CCSCC3)[nH]c2cc1C(F)(F)F [compound 17] |  | inactive | IC50 [2]: > 1500 nM |
| CCS(=O)(=O)CC(C)(O)c1cc2cc([N+](=O)[O-])c(C(F)(F)F)cc2[nH]1 (centres unmarked) [compound 151] |  |  | % Activity ([1]; @ 8000 nM): −1 @ 8000 nM %; % Inhibition [2]: 55% |
| CCSCC(O)(CC)c1cc2cc(C#N)c(C(F)(F)F)cc2[nH]1 (centres unmarked) [Compound #223] |  | active | % Activity ([1]; @ 8000 nM): 0 @ 8000 nM % |
| CCSCC(C)(O)c1[nH]c2cc(C(F)(F)F)c([N+](=O)[O-])cc2c1C (racemic) [compound 221] | −1 | inactive |  |
| CCSCC(C)(O)c1cc2cc(Cl)c(C(F)(F)F)cc2[nH]1 (centres unmarked) [compound 152] |  | inactive | inhibition at 3 µM [2]: 39% |
| CC(O)(CSc1ccc(N)cc1)c1cc2cc(Cl)c(C(F)(F)F)cc2n1S(C)(=O)=O (racemic) [compound 125] | −5 |  |  |
| CC(O)(CS(=O)(=O)CC(F)(F)F)c1[nH]c2cc([N+](=O)[O-])c(C(F)(F)F)cc2c1Cl (centres unmarked) [compound 207] |  | active | % Activity ([1]; 3000 nM, 3 µM): 1% and −1% |
| CCSCC(C)(O)c1[nH]c2cc(C(F)(F)F)c([N+](=O)[O-])cc2c1C#N (single isomer, unassigned) [compound 247] |  | inactive | % Inhibition [2]: 90% |
| CSCC(C)(O)c1cc2cc([N+](=O)[O-])c(C(F)(F)F)cc2[nH]1 (single isomer, unassigned) [compound 144] |  |  | % Activity ([1]; 3000 nM, 3 µM): 0% |
| CCSCC(C)(O)c1cc2cc(C#N)c(C(F)(F)F)cc2[nH]1 (centres unmarked) [Compound #218, 2-(2-Ethylsulfanyl-1-hydroxy-1-methyl-ethyl)-6-trifluoromethyl-1H-indole-5-carbonitrile] | 0 | inactive |  |
| CSC(C)(O)c1cc2cc([N+](=O)[O-])c(C(F)(F)F)cc2[nH]1 (racemic) [compound 267] |  | inactive | % Activity ([1]; 3000 nM, 3 µM): −5% and 0% |
| CCSCC(C)(O)c1[nH]c2cc(C(F)(F)F)c(C#N)cc2c1C (centres unmarked) [compound 219] |  | inactive | % Activity ([1]; 3000 nM, 3 µM): −3% |
| CC(O)(CSCC(F)(F)F)c1cc2cc(C#N)c(C(F)(F)F)cc2[nH]1 (racemic) [compound 211] | −1 |  |  |
| CN(C)c1ccc(SCC(C)(O)c2cc3cc(Cl)c(C(F)(F)F)cc3[nH]2)cc1 (centres unmarked) [compound 124] | −4 | inactive |  |
| CCS(=O)(=O)CC(C)(O)c1cc2cc(C#N)c(C(F)(F)F)cc2n1C (racemic) [compound 240] | 0 | inactive |  |
| CSCCC(C)(O)c1cc2cc(Cl)c(C(F)(F)F)cc2[nH]1 (racemic) [compound 51] | 2 | inactive |  |
| CCSCC(C)(O)c1[nH]c2cc(C(F)(F)F)c([N+](=O)[O-])cc2c1C#N (centres unmarked) [compound 242] |  | inactive | inhibition at 3 µM [2]: 92% |
| CCCSCC(C)(O)c1cc2cc(Cl)c(C(F)(F)F)cc2[nH]1 (racemic) [compound 196] | 13 | inactive |  |
| CCS(=O)(=O)CC(C)(O)c1[nH]c2cc(C(F)(F)F)c(C#N)cc2c1C (racemic) [compound 246] |  |  | inhibition at 3 µM [2]: 70% |
| CC(O)(CSCc1ccco1)c1cc2cc([N+](=O)[O-])c(C(F)(F)F)cc2[nH]1 (racemic) [compound 198] | 7 | inactive |  |
| CC(O)(CS(=O)(=O)CC(F)(F)F)c1cc2cc([N+](=O)[O-])c(C(F)(F)F)cc2[nH]1 (racemic) [compound 208] | 1 | active |  |
| CC[S+]([O-])CC(C)(O)c1cc2cc(C(F)(F)F)c([N+](=O)[O-])cc2[nH]1 (mixture of isomers) [compound 230] | 0 | active |  |
| CC[S+]([O-])CC(O)c1cc2cc([N+](=O)[O-])c(C(F)(F)F)cc2[nH]1 (mixture of isomers) [compound 180] | 2 | inactive |  |
| CC(O)(CSc1ccccc1N)c1cc2cc(Cl)c(C(F)(F)F)cc2[nH]1 (centres unmarked) [compound 123] | −4 | inactive | % Activity ([1]; @ 8000 nM): 1 @ 8000 nM % |
